In article PMC5530730, “^11C-Labeling of Aryl Ketones as Candidate Histamine Subtype-3 Receptor PET Radioligands through Pd(0)-Mediated ^11C-Carbonylative Coupling” (Molecules : A Journal of Synthetic Chemistry and Natural …, 2017):
Like-named read-outs stand apart in the source and are kept apart here.

Key:
H2R = H2R (Homo sapiens, UniProt P25021); assay: Competitive binding, displacement of [3H]tiotidine, PDSP; conditions: human recombinant receptors expressed in HEK293T cells, read-out: Affinity (Ki, nM) H2
H1R = H1R (Homo sapiens, UniProt P35367); assay: Competitive binding, displacement of [3H]pyrilamine, PDSP; conditions: human recombinant receptors expressed in HEK293T cells, read-out: Affinity (Ki, nM) H1
H3 receptors = H3 receptors (Cavia porcellus, UniProt Q9JI35); assay: Competitive binding, displacement of [3H]α-methylhistamine, PDSP; design: species or system guinea pig
[1] = molecular target: cloned human H3 receptors; design: method as in PMID 15634000; conditions: [3H]α-methylhistamine; membranes of C6 cells expressing cloned human H3 receptors; read-out: Affinity (Ki, nM) H3 (lit); cited from earlier work
[2] = [3H]α-methylhistamine, guinea pig cells expressing H3 receptors, NIMH PDSP, read-out: Affinity (Ki, nM) H3

Sequence of H3 receptors (Q9JI35 whole entry): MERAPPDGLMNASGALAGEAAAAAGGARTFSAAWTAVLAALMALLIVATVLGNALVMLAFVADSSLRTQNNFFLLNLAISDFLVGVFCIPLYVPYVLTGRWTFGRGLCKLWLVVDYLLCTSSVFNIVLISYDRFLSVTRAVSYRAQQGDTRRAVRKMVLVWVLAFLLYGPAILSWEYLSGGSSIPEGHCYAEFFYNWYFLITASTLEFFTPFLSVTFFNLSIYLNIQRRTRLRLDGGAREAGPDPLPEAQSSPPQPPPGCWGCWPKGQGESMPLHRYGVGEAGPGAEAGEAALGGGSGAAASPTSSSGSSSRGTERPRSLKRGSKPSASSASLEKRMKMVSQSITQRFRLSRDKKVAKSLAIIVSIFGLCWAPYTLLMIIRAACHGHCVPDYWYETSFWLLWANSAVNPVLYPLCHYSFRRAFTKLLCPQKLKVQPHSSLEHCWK
Sequence of H1R (P35367 whole entry): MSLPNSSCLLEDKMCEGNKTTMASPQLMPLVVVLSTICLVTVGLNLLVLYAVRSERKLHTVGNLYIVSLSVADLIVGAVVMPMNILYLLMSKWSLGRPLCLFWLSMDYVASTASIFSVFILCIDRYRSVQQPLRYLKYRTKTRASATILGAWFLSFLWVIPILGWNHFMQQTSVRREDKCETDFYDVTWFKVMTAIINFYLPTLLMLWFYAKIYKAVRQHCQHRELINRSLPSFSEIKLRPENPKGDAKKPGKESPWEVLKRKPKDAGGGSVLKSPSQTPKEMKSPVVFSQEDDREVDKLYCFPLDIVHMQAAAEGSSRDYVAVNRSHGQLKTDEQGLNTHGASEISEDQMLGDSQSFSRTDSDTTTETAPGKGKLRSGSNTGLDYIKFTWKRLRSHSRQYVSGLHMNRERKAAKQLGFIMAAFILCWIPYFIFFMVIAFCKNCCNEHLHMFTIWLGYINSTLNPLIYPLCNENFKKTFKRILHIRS
Sequence of H2R (P25021 whole entry): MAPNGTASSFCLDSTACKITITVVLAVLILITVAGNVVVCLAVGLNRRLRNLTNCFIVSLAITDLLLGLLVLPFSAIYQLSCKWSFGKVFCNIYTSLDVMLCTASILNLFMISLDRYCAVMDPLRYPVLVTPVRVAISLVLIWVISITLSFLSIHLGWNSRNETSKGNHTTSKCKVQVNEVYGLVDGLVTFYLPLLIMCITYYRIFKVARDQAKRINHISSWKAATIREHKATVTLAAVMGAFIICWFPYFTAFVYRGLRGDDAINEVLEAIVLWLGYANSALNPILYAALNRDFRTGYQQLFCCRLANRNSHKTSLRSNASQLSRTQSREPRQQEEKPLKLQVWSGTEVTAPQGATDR

## C[C@@H]1CCCN1CCc1cc2cc(C(=O)c3ccc([N+](=O)[O-])cc3)ccc2o1 [Ligand 1]
H2R
  Ki: 706 nM
H1R
  Ki: 1030 nM
H3 receptors; [2]
  Ki: 2.1 nM

## C[C@@H]1CCCN1CCc1cc2cc(C(=O)c3cc(F)cc(F)c3)ccc2o1 [Ligand 4, (R)-(3,5-Difluorophenyl)(2-(2-(2-methylpyrrolidin-1-yl)ethyl)benzofuran-5-yl)methanone]
H2R
  Ki: 630 nM
H1R
  Ki: > 10000 nM
H3 receptors; [2]
  Ki: 2.9 nM
[1]
  Ki: 0.09 nM

## C[C@@H]1CCCN1CCc1cc2cc(C(=O)c3cccc(F)c3)ccc2o1 [Ligand 3]
H2R
  Ki: 1370 nM
H1R
  Ki: > 10000 nM
H3 receptors; [2]
  Ki: 4.9 nM
[1]
  Ki: 0.1 nM

## C[C@@H]1CCCN1CCc1cc2cc(C(=O)c3ccc(F)cc3)ccc2o1 [Ligand 2]
H2R
  Ki: 923 nM
H1R
  Ki: 7050 nM
H3 receptors
  Ki: 4.2 nM
